Assay results from US20250340941A1, “ASSAY AND METHODS FOR DRUG DISCOVERY” (BIOVIE INC., priority 2023, published 2025).

How the values were obtained:
[1] = system: TNFR1 phosphorylation in THP-1 human monocytes; assay: TNFa-stimulated TNFR1 ERK-dependent phosphorylation, Western blot densitometry; assay type: cell-based; details: THP-1, TNFa 50 ng/mL
Method: THP-1 monocytes were treated with 100 nM NE3107, 1 uM IKK-16 (IKK inhibitor), 1 uM Tpl2 Kinase inhibitor (TPL2i) or Vehicle (0.1% DMSO) and stimulated with TNFa 50 ng/mL. Cell lysates were collected at 0, 2, 5, 10, 15, and 30 minutes. The results are given as fold change with respect to the control following Western blotting and quantification of band intensities by densitometry scanning.
THP-1 human monocytes were grown in complete growth medium (ATCC-formulated RPMI-1640 Medium, Catalog No. 30-2001), 2-mercaptoethanol to a final concentration of 0.05 mM and fetal bovine serum to final concentration of 10%. THP-1 human monocytes were then seeded into 10 mL complete growth medium at 0.4×10^6/mL in a T25 flask and were grown to 0.8×10^6/mL in about 1 to 2 days. The cells were then starved in 0.5% FBS RPMI for 16 h. The THP-1 monocytes were then treated with 100 nM 17α-ethynylandrost-5-ene-3ϕ3,7ϕ3,17ϕ3-triol (NE3107), 1 μM IKK-16 (IKK inhibitor), 1 μM Tpl2 Kinase inhibitor (TPL2i) or 0.1% DMSO (vehicle). Cells were stimulated with stimulated with 50 ng/mL TNFa and cell lysates were collected at 0, 2, 5, 10, 15, and 30 minutes after TNFa stimulation. Total cell lysates were subjected to Western blotting as described in Lu et al., Mol. Endocrinol. 22 (2008), 760-771. Relative band intensities were quantified by densitometry scanning. The results are given as fold change with respect to untreated cells in Table 2.

[2] = Phase 3 trial: adverse events; assay type: in vivo, human; details: blinded (IP or placebo not known)
Description: Of the 439 subjects enrolled in the study, 156 experienced 1 or more AEs (35.5%). There were only 43 (9.8%) related AEs with the majority 42 […] categorized as non-serious AEs by the principal investigator. The study also had very low rate of serious AEs reported. There were 12 (2.7%) reported for the duration of the study. […] As this is a blinded analysis it is not known if the subjects was on IP or placebo.

[3] = Phase 3 trial: FDG-PET imaging; assay type: in vivo, human; details: Phase 3, blinded analysis; subjects with a baseline whole cortex suvr <1.29, n/N
Method: Subjects were analyzed using a fluorodeoxyglucose (FDG)-positron emission tomography (PET) imaging scans. FDG-PET standardized uptake value ratios (“suvr”) were increased in 14/24 subjects with a baseline whole cortex suvr <1.29. […] Cholesterol increases trended with increased Cingulate suvr. The results are described in Table 7 and FIG. 5.

[4] = Phase 3 trial (NM101, NCT04669028): metabolic changes, blinded assessment; assay type: in vivo, human
Description: In this example, the clinical outcomes from a Phase 3, randomized, placebo-controlled trial of NE3107 (17α-ethynylandrost-5-ene-3ϕ3,7ϕ3,17ϕ3-triol) in subjects with mild to moderate probable Alzheimer's disease.
Recently, the roles of inflammation and insulin resistance in neurodegeneration have become better appreciated. […] We describe the rationale and design of NM101, the first randomized, multicenter Phase III clinical study to examine the safety and efficacy of 30-week treatment with NE3107 versus placebo in elderly adults with mild-to-moderate Alzheimer's disease. Patients (316) will be randomized in a 1:1 ratio. The co-primary end points measure cognitive function and functional and behavioral characteristics (Clinical Dementia Rating Scale Sum of Boxes, CDR-SB) and cognitive function (ADAS Cog12). Trial registration number: NCT04669028 (Clinicaltrials.gov).
Subjects metabolic and correlation changes were analyzed. Many of the genes associated with LOAD (late onset Alzheimer's disease) are related to cholesterol metabolism, which is decreased in AD neuron membranes. Insulin and glycemic controls are known to be involved in neurodegeneration. […] Increased mean amplitude of glycemic excursion (MAGE from CGM) increased risk of Alzheimer's disease progression. Leptin is an anti-inflammatory, neuroprotective and is decreased in AD. […] The results are described in Tables 4 and 5.

[5] = Phase 3 trial: imaging sub-study vMRI; assay type: in vivo, human; details: Phase 3 imaging sub-study, 23 subjects, blinded analysis; result in words
Method: Subjects were analyzed using imaging sub-studies vMRI on 23 subjects. It was observed that the volume was increased in the hippocampus and amygdala. In addition, it was observed that a decreased CGIC was correlated with decreased hippocampi volume and increased MCP-1 was correlated with increased whole cortex. The results are described in FIGS. 4A-4B and Table 6.

[6] = system: Horvath Clock DNA methylation (DNAm); assay: Horvath Clock DNA methylation (DNAm) epigenetic analysis of whole blood, 3-month open-label phase 2 study (NCT05007820); assay type: in vivo, human
Description: NE3107 is an oral small molecule, blood-brain permeable anti-inflammatory insulin sensitizer that binds ERK, inhibits NFKB and TNF signaling, and is in clinical studies for Probable AD (NCT04669028) and Parkinson's disease (NCT05083260). Safety, clinical, biomarker and neuroimaging results from a 3-month open-label phase 2 study of NE3107 treatment of MCI and probable AD (NCT05007820) were reported at CTAD (2022 J. Prev. Alzheimers Dis 9 S86, S140 and S27). In this example, the inventors determined the results of epigenetic clock studies from NCT05007820.
Methods: Subjects with clinical dementia rating (CDR) 0.5-1 were consented, and whole blood was drawn, frozen and shipped for Horvath Clock DNA methylation (DNAm) epigenetic analysis (Horvath 2018 Aging 10:1758) at baseline and 3 months.
(§1) Result: The subject's SkinBloodAge clock closely matched their chronological age at baseline (mean 71.5 vs 70.8 years). After 3 months of NE3107 (20 mg BID), the SkinBloodAge decreased by a mean of 3.3 years (Table). […] Leptin is reportedly lower in AD, and DNAmLeptin is reported to be positively correlated with metabolic parameters waist/hip ratio, BMI, CRP, insulin, glucose and triglycerides (Lu 2022 Aging 14:9884). […] DNAmPack Years is reported to be negatively correlated with time to mortality in both smokers and nonsmokers, and positively correlated with waist/hip ratio, CRP and triglycerides. Monocyte DNAm was correlated with monocyte frequency at baseline, and although it is reported to increases with chronological age, it decreased (−29%) in 77% of subjects after 3 months treatment. […]

Monocytes = assay: Blood monocyte frequency, 3-month open-label phase 2 study; assay type: in vivo, human
Method: as §1

[7] = Phase 3 trial: neuropsychiatric inventory; assay type: in vivo, human; details: Phase 3, blinded analysis (NE3107 and placebo not separated)
Method: Subjects were analyzed for neuropsychiatric inventory. […] An improvement in appetite was also correlated with decreased Cog12, CDR SB and ADCOMS, with increased Alzheimer's disease. A decrease in anxiety was correlated with an increase ADL and decreased CGIC. Sleep improvement was correlated with a decrease in CGIC and decreased in TNFa. The results are described in Table 8 and FIGS. 6A-6B.

[8] = Phase 3, blinded analysis (NE3107 and placebo not separated)
[9] = Phase 3, blinded analysis, result in words
[10] = After 3 months of NE3107 (20 mg BID), result in words
[11] = After 3 months of NE3107 (20 mg BID), size of decrease
[12] = Blood Cell Frequency, 3 months vs baseline, mean
[13] = Blood Cell Frequency, NE3107 20 mg BID, 3 months, mean
[14] = NE3107 20 mg BID, 3 months vs baseline
[15] = NE3107 20 mg BID, 3 months vs baseline, mean
[16] = NE3107 20 mg BID, 3 months, mean
[17] = NE3107 20 mg BID, 3 months, n/N subjects

## O=C(c1ccc(Nc2nccc(-c3cc4ccccc4s3)n2)cc1)N1CCC(N2CCCC2)CC1 [IKKi, IKK-16, reference compound]
[1]; 1 μM, 0 min
  Fold vs DMSO control P-TNFR1/Actin in Gel2: 2.09 fold
  Fold vs DMSO control P-TNFR1/TNFR1 in Gel2: 2.92 fold
[1]; 1 μM, 15 min
  Fold vs DMSO control P-TNFR1/Actin in Gel2: 0.92 fold
  Fold vs DMSO control P-TNFR1/TNFR1 in Gel2: 0.59 fold
[1]; 1 μM, 30 min
  Fold vs DMSO control P-TNFR1/Actin in Gel2: 0.49 fold
  Fold vs DMSO control P-TNFR1/TNFR1 in Gel2: 0.30 fold

## C#C[C@]1(O)CC[C@H]2[C@@H]3[C@@H](O)C=C4C[C@@H](O)CC[C@]4(C)[C@H]3CC[C@@]21C [NE3107, 17α-ethynylandrost-5-ene-3ϕ3,7ϕ3,17ϕ3-triol]
[1]; 100 nM, 0 min
  Fold vs DMSO control P-TNFR1/Actin in Gel2: 0.32 fold
  Fold vs DMSO control P-TNFR1/TNFR1 in Gel2: 0.27 fold
[1]; 100 nM, 15 min
  Fold vs DMSO control P-TNFR1/Actin in Gel2: 0.79 fold
  Fold vs DMSO control P-TNFR1/TNFR1 in Gel2: 0.57 fold
[1]; 100 nM, 30 min
  Fold vs DMSO control P-TNFR1/Actin in Gel2: 0.23 fold
  Fold vs DMSO control P-TNFR1/TNFR1 in Gel2: 0.17 fold
[2]; Phase 3, 439 subjects enrolled
  related AEs: 9.8%
  related AEs categorized as non-serious: 0.6%
  serious AEs reported: 2.7%
  subjects discontinued due to a reported AE: 1.8%
  subjects who experienced 1 or more AEs: 35.5%
[2]; Phase 3, count
  serious AEs that resulted in death: 1
[3]
  subjects with increased FDG-PET standardized uptake value ratios (suvr): 14/24
[4]; [8]
  HOMA2-% B, Change from Baseline: +13.5%, *
  HOMA2-% S, Change from Baseline: −21.2%, *
  Insulin, Change from Baseline: +1.9 μIU/mL
  Leptin, V10 median: 29.2 ng/mL
[4]; Phase 3, blinded analysis (NE3107 and placebo not separated), from CGM
  MAGE, Change from Baseline: -0.57 mg/dL
[4]; [9]
  Leptin DNAm: observed to increase
  cases of hypoglycemia: no cases of hypoglycemia
[4]; Phase 3, mild to moderate probable AD, blinded analysis (NE3107 and placebo subjects not separated)
  Cholesterol, Change from Baseline: +3.0 mg/dL
[5]
  vMRI volume in the hippocampus and amygdala: increased
[6]; 3 months vs baseline
  DNAmCD4Tcell, Change (%): (18%)
  DNAmCD8Tcell, Change (%): (12%)
  DNAmGranulocyte, Change (%): (2.2%)
  DNAmNKcell, Change (%): (0.5%)
[6]; [10]
  changes in DNAmT, DNAmNK or DNAmGran: no significant changes
[6]; [11]
  DNAmPackYears decreased by: 39%
  SkinBloodAge decreased by a mean of: 3.3 years
[6]; [12]
  DNAmCD4Tcell, Change: −0.033
  DNAmCD8Tcell, Change: −0.002
  DNAmGranulocyte, Change: −0.015
  DNAmNKcell, Change: −0.0003
[6]; [13]
  DNAmCD4Tcell, 3 Months: 0.152
  DNAmCD8Tcell, 3 Months: 0.013
  DNAmGranulocyte, 3 Months: 0.653
  DNAmNKcell, 3 Months: 0.063
[6]; [14]
  DNAmPackYears, Change (%): (39%)
  DNAmSkinBlood, Change (%): (−4.6%)
[6]; [15]
  DNAmMonocytes, Change: −0.022 Freq
  DNAmPackYears, Change: −9.4
  DNAmSkinBlood, Change: −3.3 years
[6]; NE3107 20 mg BID, 3 months, MCI/probable AD subjects (CDR 0.5-1), whole blood, mean
  DNAmSkinBlood, 3 Months: 67.5 years
[6]; [16]
  DNAmMonocytes, 3 Months: 0.054 Freq
  DNAmPackYears, 3 Months: 14.6
[6]; [17]
  DNAmLeptin, Frequency (subjects with decrease): 22/22
  DNAmMonocytes, Frequency (subjects with decrease): 17/22
  DNAmPackYears, Frequency (subjects with decrease): 21/22
  DNAmSkinBlood, Frequency (subjects with decrease): 19/22
Monocytes; [10]
  change in monocyte frequency: no significant change
Monocytes; [14]
  Monocytes, Change (%): (1.5%)
Monocytes; [15]
  Monocytes, Change: −0.001 Freq
Monocytes; [16]
  Monocytes, 3 Months: 0.085 Freq
[7]
  neuropsychiatric inventory: overall improvement in appetite: −1.0
  neuropsychiatric inventory: overall improvement in sleep: −1.0
